Test results: patent US10980775B2, “Composition for prevention or treatment of cutaneous disorder” (XANTIAL, priority 2015, dated 2021)
Values joined by “and” are separate entries in the source; they are usually repeats but may differ in a detail not shown here. Equal values may be shown once.

Assays:
[1] = test system: collagen I expression in NHDF; experiment: Collagen I expression in NHDF stimulated with vitamin C+TGF-beta, in situ immunolabeling; format: cell-based, human; details: 50 μg/ml, 72 hours
Protocol: Analysis of collagen I expression in NHDF stimulated with vitamin C+TGF-beta by in situ immunolabeling. Activated HMVEC release TGF-beta which stimulates extracellular matrix synthesis by NHDF. TGF-beta stimulates the synthesis of collagen and vitamin C its release, creating experimental conditions close to TSC pathology conditions.
Normal Human Dermal Fibroblasts (NHDF) • Cell type: NHDF, used at the 8th passage • Culture conditions: 37° C., 5% CO2 • Culture medium: DMEM supplemented with L-glutamine 2 mM, Penicillin 50 U/ml—Streptomycin 50 μg/ml Fetal calf serum (FCS) 10% • Assay medium: DMEM supplemented with L-glutamine 2 mM, Penicillin 50 U/ml, Streptomycin 50 μg/ml FCS 1%. Culture and Treatment
The fibroblasts were seeded in 96-well plates and cultured in culture medium for 24 hours. The medium was then replaced with assay medium containing or not (control) the test compounds or associations in presence or not (non-stimulated control) of the association vitamin C+TGF-beta (20 μg/ml+10 ng/ml). The cells were incubated for 72 hours. All experimental conditions were performed in n=3.
After incubation, culture media were discarded and the cells were rinsed, fixed and permeabilized.
The acquisition of the images (5 photos per well) was performed using INCell Analyzer™ 1000 (GE Healthcare). Representative images for each experimental condition were included in the report.
The labeling was quantified by the measurement of the fluorescence intensity normalized to the total number of cells (Integration of numerical data with the Developer Toolbox 1.5, GE Healthcare software).

[2] = test system: HMVEC/NHDF co-culture; experiment: Pseudotube formation (branching points) in VEGF-stimulated HMVEC/NHDF co-culture, in situ immunolabeling; format: cell-based, human; details: VEGF 100 ng/ml, 10 days; for Number of branching points, Mean: n=3; for Number of branching points: single replicate
Protocol: Analysis of pseudotube formation in a HMVEC/NHDF co-culture by in situ immunolabeling.
Human Microvascular Endothelial Cells (HMVEC) • Cell type: HMVEC, used at the 7th passage
HMVEC/NHDF Co-Culture • Cell type: HMVEC+NHDF (50:50 ratio) • Culture conditions: 37° C., 5% CO2 • Co-culture medium: Endothelial Cell Basal Medium 2 (EBM-2) supplemented with Fetal calf serum (FCS) 5%, rhEGF, rhFGF, R3 IGF-1, hydrocortisone, vitamin C and gentamycin +
DMEM supplemented with L-glutamine 2 mM, Penicillin 50 U/ml, Streptomycin 50 μg/ml FCS 10%.
The HMVEC and NHDF were seeded in 96-well plates and co-cultured in co-culture medium for 24 hours. The medium was then removed and replaced by co-culture medium containing or not (control) the test compounds, associations or the reference, suramine at 5 μM, in presence or not (non-stimulated control) of the inducer, VEGF at 100 ng/ml. The cells were incubated for 10 days with treatment renewal after 72 hours of incubation. All experimental conditions were performed in n=3.
After incubation, culture media were discarded and the cells were rinsed, fixed and permeabilized. The cells were then labeled using a primary antibody anti-Von Willebrand Factor.
The formation of pseudotubes was observed using a NIKON Diaphot 300 microscope (lens×4). The images were captured (1 photo per well) using a NIKON DS-Fi1 camera and NIS-Elements 3.10 software. Then the number of branching points within the pseudotube network was counted on each image.

## COc1cc2c(cc1O)CCC(C)(C)O2 [Dimethylmethoxy chromanol]
[1]; NHDF + vitamin C+TGF-beta (20 μg/ml+10 ng/ml), n=3
  Collagen I, Mean (basic data): 274529
[1]; NHDF + vitamin C+TGF-beta (20 μg/ml+10 ng/ml), single replicate
  Collagen I branching points (basic data): 250891 and 283414 and 289284
[1]; NHDF + vitamin C+TGF-beta
  % Stimulated control (collagen I): 73%
  % inhibition (collagen I expression): 71%
[2]; 6 μg/ml
  % stimulated control (branching points): 79%
  Number of branching points, Mean: 98
  Number of branching points: 83 and 104 and 109
[2]; Homo sapiens, 240 h, 6 μg/ml
  inhibition at 6 µg/mL: 21%

## Oc1ccc(/C=C/c2cc(O)cc(O)c2)cc1 [Resveratrol, 3,5,4′-trihydroxy-trans-stilbene]
[2]; 2 μg/ml
  % stimulated control (branching points): 113%
  Number of branching points, Mean: 141
  Number of branching points: 139 and 157 and 126
[2]; Homo sapiens, 240 h, 2 μg/ml
  inhibition at 2 µg/mL: -13%

## Cc1ccc(C(=O)Nc2ccc(S(=O)(=O)O)c3cc(S(=O)(=O)O)cc(S(=O)(=O)O)c23)cc1NC(=O)c1cccc(NC(=O)Nc2cccc(C(=O)Nc3cc(C(=O)Nc4ccc(S(=O)(=O)O)c5cc(S(=O)(=O)O)cc(S(=O)(=O)O)c45)ccc3C)c2)c1 [Suramine, reference compound]
[2]; 5 μM
  % stimulated control (branching points): 63%
  Number of branching points, Mean: 78
  Number of branching points: 72 and 85 and 79
[2]; Homo sapiens, 240 h, 5 μM
  inhibition at 5 µM: 37%
